Columns and labels:
Assay type in all cases: in vivo, mouse
OVA-challenged mice = test: AHR (Penh) in response to methacholine in OVA-challenged mice; conditions: for reduction of Penh (based on area-under-the-curve calculations): methacholine 6.25-50 mg/ml, 24 h after last OVA challenge
Experimental: Female BALB/c mice and C57BL/6 mice (7 weeks old; 18-20 g) were obtained from Orientbion Inc. (Seoungnam, Korea). Sensitization and challenge were carried out as described previously with some modification (28). Briefly, female C57BL/6 mice (7 weeks old; 18-20 g) were immunized by intraperitoneal (i.p.) injection of 200 μg ovalbumin (OVA) emulsified in 2.5 mg of adjuvant aluminum hydroperoxide gel (alum) (Pierce, Rockford, Ill.). A second i.p. injection of 20 μg OVA adsorbed onto alum (2.5 mg) was administered 10 days later. After an additional 10 days, mice were exposed to an aerosol of 1% OVA in saline for 30 min daily on 3 consecutive days. On day 25, mice were finally challenged by provocation with 10% OVA aerosol. For inhibition experiments, sense or antisense BLT2 (1.6 mg/kg) was injected intravenously 24 h and then 1 h before the 10% OVA challenge. The mice were then killed on day 27 to assess asthmatic phenotypes. Antisense BLT2 oligonucleotide (5′-[…]-3′ (SEQ ID NO: 15)), sense BLT2 oligonucleotide (5′-[…]-3′ (SEQ ID NO: 16)). […]
Airway AHR was measured in unrestrained, conscious mice 24 h after the final OVA challenge using a whole-body plethysmograph, as previously described (29). Mice were placed in a barometric plethysmographic chamber (All Medicus Co., Seoul, Korea), and baseline readings were taken and averaged for 3 min. […] Readings were taken and averaged for 3 min after each nebulization, and enhanced pause (Penh) was determined. Signals were analyzed to derive whole body flow parameters including respiratory rate, tidal volume, inspiratory time (Ti), expiratory time (Te)1. peak inspiratory flow (PIF), peak expiratory flow (PEF), and relaxation time (RT). […] Baseline Penh measurements for each animal were recorded for 3 min and averaged. Results are expressed as the percentage increase of Penh following challenge with each concentration of methacholine, where the baseline Penh (after saline challenge) is expressed as 100%. Penh values averaged for 3 min after each nebulization were evaluated. […]

IκB-α = IκB-α level in lung tissue (Western blot); conditions: lung tissue extracts
Experimental: (§1) Female BALB/c mice and C57BL/6 mice (7 weeks old; 18-20 g) were obtained from Orientbion Inc. (Seoungnam, Korea). Sensitization and challenge were carried out as described previously with some modification (28). Briefly, female C57BL/6 mice (7 weeks old; 18-20 g) were immunized by intraperitoneal (i.p.) injection of 200 μg ovalbumin (OVA) emulsified in 2.5 mg of adjuvant aluminum hydroperoxide gel (alum) (Pierce, Rockford, Ill.). A second i.p. injection of 20 μg OVA adsorbed onto alum (2.5 mg) was administered 10 days later. After an additional 10 days, mice were exposed to an aerosol of 1% OVA in saline for 30 min daily on 3 consecutive days. On day 25, mice were finally challenged by provocation with 10% OVA aerosol. For inhibition experiments, sense or antisense BLT2 (1.6 mg/kg) was injected intravenously 24 h and then 1 h before the 10% OVA challenge. The mice were then killed on day 27 to assess asthmatic phenotypes. Antisense BLT2 oligonucleotide (5′-[…]-3′ (SEQ ID NO: 15)), sense BLT2 oligonucleotide (5′-[…]-3′ (SEQ ID NO: 16)).
Alternatively, BALB/c mice were sensitized on day 1 by i.p. injection of 20 μg OVA emulsified in 2.5 mg of alum (Pierce, Rockford, Ill.), followed by an identical booster injection administered on day 14. On days 21, 22 and 23 after initial sensitization, the mice were challenged for 30 min with an aerosol of 1% OVA using an ultrasonic nebulizer. […]

NF-κB = NF-κB binding activity in lung nuclear extracts (EMSA)
Experimental: as §1
A double-strand oligonucleotide corresponding to the consensus NF-κB binding motif and a mutant sequence were purchased from Santa Cruz Biotechnology Inc. (Santa Cruz, Calif.) and labeled with γ-32P-ATP using T4 polynucleotide kinase (Roche, Germany). […]

## CCc1cc(C(C)=O)c(O)cc1OCCCCCC(C)(C)c1nnn[nH]1 [LY255283, 1-[5-ethyl-2-hydroxy-4-[[6-methyl-6-(1H-tetrazol-5-yl)heptyl]oxy]phenyl]-ethanone, reference compound]
OVA-challenged mice; LY255283 2.5 mg/kg i.v.
  reduction of Penh (based on area-under-the-curve calculations): −70%
IκB-α; LY255283 2.5 mg/kg 1 hr before 1% OVA challenge
  reduction of IκB-α degradation following OVA challenge: −50%

## antisense BLT2: Antisense BLT2 oligonucleotide 5′-GCTCAGTAGTGTCTCATTCC-3′ (SEQ ID NO: 15) (listed as DNA, chemistry not fully specified)
OVA-challenged mice; antisense BLT2 1.6 mg/kg i.v.
  reduction of Penh (based on area-under-the-curve calculations): −70%
NF-κB; antisense BLT2 1.6 mg/kg i.v. 24 hr and 1 hr before provocation
  NF-κB binding activity elicited by OVA challenge: attenuated
IκB-α; antisense BLT2 1.6 mg/kg
  reduction of IκB-α degradation following OVA challenge: −50%

## antisense Rac: phosphorothioate 17-mer to the 5′ end of murine Rac mRNA, 5′-CACTTGATGGCCTGCAT-3′ (SEQ ID NO: 22) (listed as DNA, chemistry not fully specified)
OVA-challenged mice; mouse model system for asthma, antisense oligomers to Rac1
  AHR after allergen challenge: remarkably reduced
NF-κB; antisense Rac 1.25 mg/kg, tail vein
  NF-κB binding activity elicited by OVA challenge: attenuated
